What was measured:
[1] = Mean estimated half-life of epirubicin following intravenous epirubicin at 1 mg.Kg-1 dose administered approximately 25 minute prior to epirubicin once weekly for four weeks in dog; format: ADME, organism-based, Canis lupus familiaris; conditions: Beagle, plasma
[2] = Mortality occurred following reference intravenous epirubicin at 1 mg.Kg-1 per week in rat; format: toxicity, organism-based, SD; conditions: in vivo
[3] = Increase in serum total cholesterol level following reference intravenous epirubicin at 1 mg.Kg-1 per week in rat; format: toxicity, organism-based, SD; conditions: in vivo
[4] = Increase in serum phospholipid level following reference intravenous epirubicin at 1 mg.Kg-1 per week in rat; format: toxicity, organism-based, SD; conditions: in vivo
[5] = Incidence of leukocyturia following reference intravenous epirubicin at 1 mg.Kg-1 per week in rat; format: toxicity, organism-based, SD; conditions: in vivo
[6] = Volume of distribution at steady state following epirubicin at 60 mg.m-2 dose in patients with cancer; format: ADME, organism-based; conditions: human, plasma, read-out: Vss
[7] = Urinary excretion of epirubicin following epirubicin at 60-150 mg.m-2 dose in cancer patients; format: ADME, organism-based; conditions: human, urine; read-out: Compound recovery
[8] = Cumulative urinary excretion of epirubicin and its metabolites following epirubicin at 60-150 mg.m-2 dose in cancer patients; format: ADME, organism-based, Urine; conditions: human, in vivo
[9] = Cumulative urinary excretion of epirubicin and its metabolites following epirubicin at 50 mg.m-2 dose in cancer patients; format: ADME, organism-based, Urine; conditions: human, in vivo; at 50 mg/m2
[10] = Cumulative urinary excretion of epirubicin and its metabolites following epirubicin at 60 mg.m-2 dose in cancer patients; format: ADME, organism-based, Urine; conditions: human, in vivo; at 60 mg/m2
[11] = Mean plasma clearance of epirubicin following intravenous epirubicin at 60 mg.m-2 dose in cancer patients; format: ADME, organism-based; conditions: human, read-out: CLp (converted)
[12] = Plasma clearance of epirubicin following intravenous epirubicin at 30-90 mg.m-2 dose in cancer patients; format: ADME, organism-based; conditions: human, in vivo
[13] = Volume of distribution as steady state of epirubicin following intravenous epirubicin at 75 mg.m-2 dose in cancer patients; format: ADME, organism-based, Plasma; conditions: human, in vivo
[14] = Intermediate phase half-life of epirubicin following intravenous epirubicin at 40-60 mg.m-2 dose in cancer patients; format: ADME, organism-based, Plasma; conditions: human, in vivo
[15] = Volume of distribution as steady state of epirubicin following intravenous epirubicin at 40-60 mg.m-2 dose in cancer patients; format: ADME, organism-based, Plasma; conditions: human, in vivo
[16] = Terminal elimination of metabolite of epirubicin following intravenous epirubicin at 50 mg.m-2 dose in cancer patients; format: ADME, organism-based, Plasma; conditions: human, in vivo
[17] = Half-life of terminal elimination phase of epirubicin following intravenous epirubicin at 90-150 mg.m-2 dose in cancer patients; format: ADME, organism-based; conditions: human, plasma
[18] = Half-life of terminal elimination phase of epirubicin following intravenous epirubicin at 25-35 mg.m-2 dose in cancer patients; format: ADME, organism-based; conditions: human, plasma
[19] = Volume of distribution as steady state of epirubicin following intravenous epirubicin at 25-35 mg.m-2 dose in cancer patients; format: ADME, organism-based, Plasma; conditions: human, in vivo
[20] = Initial phase half-life of epirubicin following intravenous epirubicin at 75-90 mg.m-2 dose in cancer patients; format: ADME, organism-based, Plasma; conditions: human, in vivo
[21] = Volume of distribution of epirubicin following intravenous epirubicin at 1 mg.Kg-1 dose in rabbit; format: ADME, organism-based, Oryctolagus cuniculus; conditions: both, New Zealand White, plasma
[22] = Volume of distribution of epirubicin following intravenous epirubicin at 3 mg.Kg-1 dose in rabbit; format: ADME, organism-based, Oryctolagus cuniculus; conditions: both, New Zealand White, plasma
[23] = Plasma clearance of epirubicin following intravenous epirubicin emulsion at 1 mg.Kg-1 dose in rabbit; format: ADME, organism-based, Oryctolagus cuniculus, Blood; conditions: both, New Zealand White
[24] = Terminal half-life of epirubicin following intravenous epirubicin emulsion at 1 mg.Kg-1 dose in rabbit; format: ADME, organism-based, Oryctolagus cuniculus; conditions: both, New Zealand White, blood
[25] = AUC of epirubicin following intrahepatic epirubicin solution at 1 mg.Kg-1 dose in rabbit; format: ADME, organism-based, Oryctolagus cuniculus; conditions: both, New Zealand White, blood
[26] = Mean AUC (8-48 h) of epirubicin following intravenous epirubicin at 1 mg.Kg-1 dose administered approximately 25 minute prior to epirubicin once weekly for four weeks in dog; format: ADME, organism-based, Canis lupus familiaris; conditions: Beagle, plasma

Compound: COc1cccc2c1C(=O)c1c(O)c3c(c(O)c1C2=O)C[C@@](O)(C(=O)CO)C[C@@H]3O[C@H]1C[C@H](N)[C@@H](O)[C@H](C)O1.Cl [EPIRUBICIN HYDROCHLORIDE]
- half-life [1]: 51.1 h
- Mortality [2]: OUTCOME = Observed, N_AFFECTED = 5
- CHOL_CHANGE [3]: OUTCOME = Increased
- PHOSLPD_CHANGE [4]: OUTCOME = Increased
- Incidence [5]: OUTCOME = Observed
- Vd [6]: 32 L/kg
- dose excreted at 168 h [7]: 3.2%
- Radiolabel recovery [8]: 5.9%
- Radiolabel recovery [9]: 20%
- Radiolabel recovery [10]: 11.3%
- clearance [11]: 1250 mL/min
- CLp [12]: 48 L.h-1.m-2
- Vss [13]: 2964 L.m-2
- t1/2 [14]: 0.49 h
- Vss [15]: 592 L.m-2
- t1/2 [16]: 21.1 h
- half-life [17]: 42 h
- half-life [18]: 29.3 h
- Vss [19]: 925 L.m-2
- t1/2 [20]: 4.8 min
- Vd [21]: 368 L/kg
- Vd [22]: 587 L/kg
- clearance [23]: 1560 mL/min
- half-life [24]: 0.628 h
- AUC [25]: 65.5 ng·h/mL
- AUC [26]: 233 ng·h/mL
